Assay results taken from patent US20190375778A1, “ADENOSINE DERIVATIVES FOR USE IN THE TREATMENT OF CANCER” (NuCana plc, priority 2016, published 2019).

Experiments:
[1] = system: HEL92.1.7; test: CellTiterGlo viability assay, HEL92.1.7; format: cell-based; conditions: Homo sapiens, HEL 92.1.7, 72 h, read-out: IC50 HEL92.1.7
Method: (§1) In vitro viability assay were performed to assess the effects of compounds on cell viability in selected cell lines over ˜72 hrs using the CellTiterGlo (CTG, Promega-G7573) assay. The tests were performed in duplicates with treatment of compounds at 9 points, 3.16 folds titration in 96 well plates over ˜72 hrs. The compound starting concentrations were 198 μM. Cell viability assay using CellTiterGlo in 96-well plate were performed. Compound treatment 72 hrs, standard growth conditions, duplicates. Compounds were dissolved to 40 mM with thawed […]. Compounds were serially diluted at 3.16 fold in thawed DMSO, and warmed to 37° C. before being dissolved in media (2 μl+200 μl). After compounds were dissolved in media, media containing compounds were warmed to 37° C. in incubator and then compounds in media were added to cell plates (50 μl+50 μl) in duplicates. The compounds' final concentrations were from […] to 19.9 nM. All compound solubilities were checked and recorded again, then the plates were transferred to CO2 tissue culture incubator immediately and incubated for 3 days. DMSO final concentration is 0.5%.

[2] = system: CCRFCEM; test: CellTiterGlo viability assay, CCRFCEM; format: cell-based; conditions: Homo sapiens, CCRF-CEM, 72 h, read-out: IC50 CCRFCEM
Method: as §1

[3] = system: KG-1; test: CellTiterGlo viability assay, KG-1; format: cell-based; conditions: Homo sapiens, KG-1, 72 h, read-out: IC50 KG-1
Method: as §1

[4] = system: human cervix carcinoma HeLa cells; test: Cell proliferation (Coulter count) assay, HeLa; format: cell-based; conditions: 120 h, cell count on day 5, read-out: absolute IC50, HeLa
Description: (§2) Lovo: cell line derived from a metastatic site in a patient with colon cancer MCF7: human oestrogen sensitive mammary epithelial cell line PC3: human prostate cancer cell line A549: cancerous lung tissue derived cells L1210: lymphoblast cell line derived from a mouse with lymphocytic leukaemia FM3A: mammary carcinoma murine cells CEM: human T-lymphoblasts, derived from the blood of a patient with acute lymphoblastic leukaemia HeLa: epithelial cells from a patient with cervical adenocarcinoma
(§3) Murine leukemia L1210, human T-lymphocyte CEM, and human cervix carcinoma HeLa cells were obtained from the American Type Culture Collection (ATCC) (Rockville, Md.). All cells were maintained in Dulbecco's modified Eagle's medium (DMEM) (Invitrogen, Carlsbad, Calif.) with 10% fetal bovine serum (FBS) (Biochrom AG, Berlin, Germany), 10 mM Hepes, and 1 mM sodiumpyruvate (Invitrogen). Cells were grown at 37° C. in a humidified incubator with a gas phase of 5% CO2. Monolayer cells (HeLa and […]) were seeded in 96-well microtiter plates (Nunc, Roskilde, Denmark) at 10 000 cells/well. After 24 h, an equal volume of fresh medium containing the test compounds was added. On day 5, cells were trypsinized and counted in a Coulter counter (Analis, Suarlee, Belgium). Suspension cells (L1210, CEM) were seeded in 96-well microtiter plates (Nunc) at 60 000 cells/well in the presence of a given amount of the test compounds. The cells were allowed to proliferate for 48 h (L1210) or 72 h (CEM) and were then counted in a Coulter counter. The 50% inhibitory concentration (IC50) was defined as the compound concentration required to reduce cell proliferation by 50%. The cytostatic activity of the compounds was determined after 3 days, as outlined above.

[5] = system: MV4-11; test: CellTiterGlo viability assay, MV4-11; format: cell-based; conditions: Homo sapiens, MV4-11, 72 h, read-out: IC50 MV4-11
Method: as §1

[6] = system: Murine leukemia L1210; test: Cell proliferation (Coulter count) assay, L1210; format: cell-based; conditions: Mus musculus, 48 h, read-out: absolute IC50, L1210
Description: as §2, §3

[7] = system: RPMI-8226; test: CellTiterGlo viability assay, RPMI-8226; format: cell-based, Human; conditions: Homo sapiens, RPMI-8226, 72 h, read-out: IC50 RPMI-8226
Method: as §1

[8] = system: NCI-H929; test: CellTiterGlo viability assay, NCI-H929; format: cell-based; conditions: Homo sapiens, NCI-H929, 72 h, read-out: IC50 NCI-H929
Method: as §1

[9] = system: RL; test: CellTiterGlo viability assay, RL; format: cell-based; conditions: Homo sapiens, RL, 72 h, read-out: IC50 RL
Method: as §1

[10] = system: K562; test: CellTiterGlo viability assay, K562; format: cell-based; conditions: Homo sapiens, K562, 72 h, read-out: IC50 K562
Method: as §1

[11] = system: HL-60; test: CellTiterGlo viability assay, HL-60; format: cell-based; conditions: Homo sapiens, HL-60, 72 h, read-out: IC50 HL-60
Method: as §1

[12] = system: human T-lymphocyte CEM; test: Cell proliferation (Coulter count) assay, CEM; format: cell-based; conditions: 72 h, read-out: absolute IC50, CEM
Description: as §2, §3

[13] = system: KG1a leukaemic stem cell compartment (Lin−/CD34+/CD38−/CD123+); test: Leukaemic stem cell compartment in KG1a; format: cell-based; conditions: for Change relative to control (%): % LSC compartment versus the series' control; for KG-1a (CD34+/CD38−/CD123+) % compartment: LSC as percentage of viable cells left, 72 hrs
Method: A further comparative analysis of the toxicity of compounds in the KG1a cell line over an extended dose range was carried out, and the relative effect assessed of the compounds on the leukaemic stem cell compartment within the KG1a cell line, across the entire dose range. Thus, experimental tests were performed on certain compounds of the present invention to assess their ability to target cancer stem cells in a leukaemic cell line. The acute myeloid leukaemia (AML) cell line, KG1a, was employed to assess the relative effect of compounds on the stem cell compartment. The KG1a cell line was selected because it manifests a minor stem cell-like compartment with a distinct immunophenotype (Lin^−/CD34^+/CD38^−/CD123^+).
Cells of the KG1a cell line were maintained in RPMI medium (Invitrogen, Paisley, UK) supplemented with 100 units/ml penicillin, 100 μg/ml streptomycin and 20% foetal calf serum. Cells were subsequently aliquoted (10^5 cells/100 μl) into 96-well plates and were incubated at 37° C. in a humidified 5% carbon dioxide atmosphere for 72 hrs in the presence of nucleoside analogues and their respective nucleotide analogues (known as ProTides) at concentrations that were experimentally determined for each series of compounds. In addition, control cultures were carried out to which no drug was added. Cells were subsequently harvested by centrifugation and were analyzed by flow cytometry using the Annexin V assay.
KG1a cells were cultured for 72 hrs in the presence of a wide range of concentrations of each compound assayed. Cells were then harvested and labelled with a cocktail of anti-lineage antibodies (PE-cy7), anti-CD34 (FITC), anti-CD38 (PE) and anti-CD123 (PERCP cy5). The sub-population expressing a leukaemic stem cell (LSC) phenotype were subsequently identified and were expressed as a percentage of all viable cells left in the culture. The percentages of stem cells remaining were then plotted on a dose-response graph and the effects of the compounds were compared with 8-chloroadenosine.
The data obtained in these experiments were evaluated using one way ANOVA. All data was confirmed as Gaussian or a Gaussian approximation using the omnibus K2 test. LD50 values were calculated from the non-linear regression and line of best-fit analysis of the sigmoidal dose-response curves. All statistical analyses were performed using Graphpad Prism 6.0 software (Graphpad Software Inc., San Diego, Calif.).

[14] = system: A549; test: MTT cytotoxicity assay, A549; format: cell-based; conditions: Homo sapiens, 96 h compound exposure, read-out: absolute IC50, A549
Description: as §2
(§4) Anti-tumour evaluation in MCF7, LoVo, A549 and PC3 cell lines was performed by MTT assay. Compounds were prepared as 0.1-100 mM stock solutions dissolved in DMSO and stored at −20° C. Cells were seeded into 96-well microtitre plates at a density of 5×10^3 cells per well and allowed 24 hours to adhere. Decimal compound dilutions were prepared in medium immediately prior to each assay (final concentration 0.1-100 μM). Experimental medium was DMEM+10% FCS (PC3 and Lovo) or RPMI+10% heat inactivated FCS (A549 and MCF7). Following 96 h compound exposure at 37° C., 5% CO2, MTT reagent (Sigma Aldrich) was added to each well (final concentration 0.5 mg/ml). Incubation at 37° C. for 4 h allowed reduction of MTT by viable cells to an insoluble formazan product. MTT was removed and formazan solubilised by addition of 10% Triton X-100 in PBS. Absorbance was read on a Tecan Sunrise spectrophotometer at 540 nm as a measure of cell viability; thus inhibition relative to control was determined (IC50).

[15] = system: PC3; test: MTT cytotoxicity assay, PC3; format: cell-based; conditions: Homo sapiens, PC-3, 96 h compound exposure, read-out: absolute IC50, PC3
Description: as §2, §4

[16] = system: Lovo; test: MTT cytotoxicity assay, Lovo; format: cell-based; conditions: Homo sapiens, 96 h compound exposure, read-out: absolute IC50, Lovo
Description: as §2, §4

[17] = system: MCF7; test: MTT cytotoxicity assay, MCF7; format: cell-based; conditions: Homo sapiens, 96 h compound exposure, read-out: absolute IC50, MCF7
Description: as §2, §4

SMILES	IC50 [1]	IC50 [2]	IC50 [3]	IC50 [4]	IC50 [5]	IC50 [6]	IC50 [7]	IC50 [8]	IC50 [9]	IC50 [10]	IC50 [11]	IC50 [12]	Change relative to control (%) [13]	KG-1a (CD34+/CD38−/CD123+) % compartment [13]	IC50 [14]	IC50 [15]	IC50 [16]	IC50 [17]
CCCCCOC(=O)[C@H](Cc1ccccc1)NP(=O)(OC[C@H]1O[C@@H](n2c(Cl)nc3c(N)ncnc32)C(O)C1O)Oc1cccc2ccccc12 (stereo partly drawn) [Q, 5′-([(Pent-1-yloxy-L-phenylalanin-N-yl)-naphth-1-yl]-phosphatyl) 8-chloroadenosine]	0.1 to 5 µM	5 to 15 µM	5 to 15 µM	0.1 to 5 µM	0.1 to 5 µM	5 to 15 µM	0.1 to 5 µM	5 to 15 µM	5 to 15 µM	0.1 to 5 µM	5 to 15 µM	0.1 to 5 µM						
Nc1nc(Cl)nc2c1ncn2[C@H]1C[C@H](O)[C@@H](CO)O1 [Cladribine]													+2.0%	6.0%				
Nc1ncnc2c1nc(Cl)n2[C@@H]1O[C@H](COP(=O)(NCC(=O)OCc2ccccc2)Oc2cccc3ccccc23)C(O)C1O (some centres unmarked) [Compound L, 5′-([(benzylo-yl-glycin-N-yl)-naphth-1-yl]-phosphatyl) 8-chloroadenosine]	0.1 to 5 µM	5 to 15 µM	5 to 15 µM	0.1 to 5 µM	0.1 to 5 µM	5 to 15 µM	0.1 to 5 µM	15 to 100 µM	5 to 15 µM	5 to 15 µM	5 to 15 µM	0.1 to 5 µM						
Nc1ncnc2c1nc(Cl)n2[C@@H]1O[C@H](COP(=O)(N[C@@H](Cc2ccccc2)C(=O)OCc2ccccc2)Oc2cccc3ccccc23)C(O)C1O (stereo partly drawn) [P, 5′-([(Benzyloxy-L-phenylalanin-N-yl)-naphth-1-yl]-phosphatyl) 8-chloroadenosine]	0.1 to 5 µM	5 to 15 µM	5 to 15 µM	0.1 to 5 µM	0.1 to 5 µM	5 to 15 µM	0.1 to 5 µM	0.1 to 5 µM	5 to 15 µM	0.1 to 5 µM	0.1 to 5 µM	0.1 to 5 µM						
CCCCCOC(=O)CNP(=O)(OC[C@H]1O[C@@H](n2c(Cl)nc3c(N)ncnc32)C(O)C1O)Oc1cccc2ccccc12 (some centres unmarked) [O, 5′-([(Pent-1-yloxy-glycin-N-yl)-naphth-1-yl]-phosphatyl) 8-chloroadenosine]	15 to 100 µM	15 to 100 µM	15 to 100 µM	0.1 to 5 µM	0.1 to 5 µM	0.1 to 5 µM	5 to 15 µM	15 to 100 µM	15 to 100 µM	5 to 15 µM	15 to 100 µM	0.1 to 5 µM						
C[C@H](NP(=O)(OC[C@H]1O[C@@H](n2c(Cl)nc3c(N)ncnc32)C(O)C1O)Oc1ccccc1)C(=O)OC1CCCCC1 (stereo partly drawn) [X, 5′-([(Cyclohexyloxy-L-alanin-N-yl)-phenyl]-phosphatyl) 8-chloroadenosine]															15 to 100 µM	0.1 to 5 µM	0.1 to 5 µM	0.1 to 5 µM
Nc1nc(Cl)nc2c1ncn2[C@@H]1O[C@H](CO)[C@@H](O)[C@@H]1F [Clofarabine]													−0.2%	3.3%				
